{
  "source": "patent US8530459B2",
  "about": "“Swallowtail motifs for imparting water solubility to porphyrinic compounds” (North Carolina State University, priority 2005, dated 2013)",
  "format_in_all_cases": "physicochemical",
  "key": {"[1]": {"test": "Stability of porphyrin-phosphate in protic solvent monitored by 1H NMR and LD-MS", "details": "mixture of CDCl3/CD3OD", "description": "Porphyrin 12a contains both the bioconjugatable site and the water-solubilizing groups, masked by tert-butyl and methyl esters, respectively. Attempts at the simultaneous removal of the tert-butyl and methyl ester protecting groups with TMS-Br were unsuccessful. […] This compound is identical to 15b (vide infra). […] The following observations were made: • (1) The crude porphyrin-phosphates, while displaying excellent water-solubility initially, precipitated out of solution within minutes. • (2) Because TMS-Br removed some of the zinc, remetalation was attempted with zinc acetate. […] Most (but not all) of the precipitate could be redissolved in concentrated (15 wt %) aqueous NaOH. • (3) When 12b was treated with TMS-Br in the presence of TEA to suppress demetalation,^27 the deprotected porphyrin-diol 11b was not formed until the addition of a protic solvent. During the work-up, 11b formed in quantitative yield, as determined by ^1H NMR spectroscopy and LD-MS [obsd m/z 567, calcd 566 for demetalated (M+H)^+] of the purified sample. • (4) A sample of 12b in a mixture of CDCl3/CD3OD was monitored by ^1H NMR and LD-MS. Within 8 h the formation of porphyrin 11b was almost quantitative (obsd m/z 566, disappearance of phosphate methyl ester singlets). • (5) Basic hydrolysis (H2O/MeOH, NaOH, various concentrations) removed only two of the methyl esters, but none of 11b was formed."}, "[2]": {"test": "Water-solubility of pure porphyrin in distilled water", "details": "thermodynamic from solid; 8-10 mg of pure porphyrin completely dissolved in 300 μL of distilled water; upper limit not determined; read-out: water-solubility (concentration)", "method": "Determination of the upper limit of water-solubility was not possible due to the lack of material; however, in each case examined, 8-10 mg of pure porphyrin (14b, 17b, Zn17b, 17a, Zn17a) completely dissolved in 300 μL of distilled water, consistent with a concentration of >20 mM."}, "[3]": {"test": "Stability of aqueous porphyrin solutions (naked eye, absorption spectroscopy)", "details": "for precipitation or aggregation of aqueous solutions: naked eye or absorption spectroscopy; for stability of aqueous solutions: room temperature, shielded from the light"}, "[4]": {"test": "Solubility in organic solvents", "description": "Reaction of 11a with dimethyl chlorophosphate in anhydrous pyridine gave no 12a, whereas similar reaction with 11b gave a very low yield of 12b. The poor yields are presumably due to the combination of low solubility and low reactivity on the part of the porphyrin-diol starting materials. We assumed that incorporation of the dimethoxyphosphoryl groups at an earlier stage could provide a more efficient process."}},
  "data": [
    {"compound": "COP(=O)(OC)OCCC(CCOP(=O)(OC)OC)c1c2nc(cc3ccc([n-]3)c(-c3ccc(Br)cc3)c3nc(cc4ccc1[n-]4)C=C3)C=C2.[Zn+2]", "note": "[12b, Zn(II)-5-(4-Bromophenyl)-15-[1,5-bis(dimethoxyphosphoryloxy)pent-3-yl]porphyrin]", "values": [
      {"measurement": "time to almost quantitative formation of porphyrin 11b (loss of phosphate groups)", "setting": "[1]", "value": "≤ 8", "unit": "h"}
    ]},
    {"compound": "O=P(O)(O)OCCC(CCOP(=O)(O)O)c1c2nc(cc3ccc([nH]3)c(-c3ccc(Br)cc3)c3nc(cc4ccc1[nH]4)C=C3)C=C2", "note": "[14b, 5-(4-Bromophenyl)-15-(1,5-bis[dihydroxyphosphoryloxy)pent-3-yl]porphyrin]", "values": [
      {"measurement": "solubility", "setting": "[2]", "value": "> 20", "unit": "mM"},
      {"measurement": "precipitation or aggregation of aqueous solutions", "setting": "[3]", "value": "Neither precipitation nor aggregation was observed"},
      {"measurement": "stability of aqueous solutions", "setting": "[3]", "value": "stable for days"}
    ]},
    {"compound": "O=C(O)COc1ccc(-c2c3nc(cc4ccc([nH]4)c(C(CCP(=O)(O)O)CCP(=O)(O)O)c4nc(cc5ccc2[nH]5)C=C4)C=C3)cc1", "note": "[17a, 5-(4-(Carboxymethoxy)phenyl)-15-[1,5-bis(dihydroxyphosphoryl)pent-3-yl]porphyrin]", "values": [
      {"measurement": "solubility", "setting": "[2]", "value": "> 20", "unit": "mM"},
      {"measurement": "precipitation or aggregation of aqueous solutions", "setting": "[3]", "value": "Neither precipitation nor aggregation was observed"},
      {"measurement": "stability of aqueous solutions", "setting": "[3]", "value": "stable for days"}
    ]},
    {"compound": "O=P(O)(O)CCC(CCP(=O)(O)O)c1c2nc(cc3ccc([nH]3)c(-c3ccc(Br)cc3)c3nc(cc4ccc1[nH]4)C=C3)C=C2", "note": "[17b, 5-(4-Bromophenyl)-15-[1,5-bis(dihydroxyphosphoryl)pent-3-yl]porphyrin]", "values": [
      {"measurement": "solubility", "setting": "[2]", "value": "> 20", "unit": "mM"},
      {"measurement": "precipitation or aggregation of aqueous solutions", "setting": "[3]", "value": "Neither precipitation nor aggregation was observed"},
      {"measurement": "stability of aqueous solutions", "setting": "[3]", "value": "stable for days"}
    ]},
    {"compound": "O=C(O)COc1ccc(-c2c3nc(cc4ccc([n-]4)c(C(CCP(=O)(O)O)CCP(=O)(O)O)c4nc(cc5ccc2[n-]5)C=C4)C=C3)cc1.[Zn+2]", "note": "[Zn17a, Zn(II)-5-(4-(Carboxymethoxy)phenyl)-15-[1,5-bis(dihydroxyphosphoryl)pent-3-yl]porphyrin]", "values": [
      {"measurement": "precipitation or aggregation of aqueous solutions", "setting": "[3]", "value": "Neither precipitation nor aggregation was observed"},
      {"measurement": "stability of aqueous solutions", "setting": "[3]", "value": "stable for days"}
    ]},
    {"compound": "Zn(II)-5-(4-Bromophenyl)-15-(1,5-dihydroxypent-3-yl)porphyrin [11b]", "values": [
      {"measurement": "solubility in most organic solvents", "setting": "[4]", "value": "only sparingly soluble"}
    ]},
    {"compound": "Zn(II)-5-(4-Bromophenyl)-15-[1,5-bis(dihydroxyphosphoryl)pent-3-yl]porphyrin [Zn17b]", "values": [
      {"measurement": "precipitation or aggregation of aqueous solutions", "setting": "[3]", "value": "Neither precipitation nor aggregation was observed"},
      {"measurement": "stability of aqueous solutions", "setting": "[3]", "value": "stable for days"}
    ]},
    {"compound": "Zn(II)-5-(4-tert-Butoxycarbonylmethoxyphenyl)-5-(1,5-dihydroxypent-3-yl)-porphyrin [11a]", "values": [
      {"measurement": "solubility in most organic solvents", "setting": "[4]", "value": "only sparingly soluble"}
    ]}
  ]
}
